Data as given in PubChem BioAssay AID330 (DTP/NCI, 2004).
Where “and” joins values, the source holds several entries; their conditions need not be identical. Equal entries are not always repeated. Inconclusive results and toxic doses are left out. How the source made its calls: active means survival T/C of 150% or more; inactive means T/C below 125% in these data. Square brackets hold non-standard residues; d marks the D form. Peptide text beside a SMILES is read from it. ξ: configuration not given here. ξD = NC(CC(=O)O)C(=O)O; Sar = CNCC(=O)O

System: P388 leukemia ip, CD2F1 mice, survival T/C
Assay: NCI In Vivo Anticancer Drug Screen. Data for tumor model P388 Leukemia (intraperitoneal) in CD2F1 (CDF1) mice
Conditions: endpoint: median survival time, higher = longer survival
How it was run: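 Mice carrying the transplanted tumor received test compound or vehicle. Survival was recorded in each group, and the value is the treated-group measurement divided by that of the vehicle-treated control group.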

[1] = dose: 50.0 mg/kg/injection, schedule: Q01DX005 (ip), vehicle: Klucel (hydroxypropylcellulose) (HPC)
[2] = dose: 100.0 mg/kg/injection, schedule: Q01DX005 (ip), vehicle: Klucel (hydroxypropylcellulose) (HPC)
[3] = dose: 200.0 mg/kg/injection, schedule: Q01DX005 (ip), vehicle: Klucel (hydroxypropylcellulose) (HPC)
[4] = dose: 25.0 mg/kg/injection, schedule: Q01DX009 (ip), vehicle: saline with Tween-80
[5] = dose: 50.0 mg/kg/injection, schedule: Q01DX009 (ip), vehicle: saline with Tween-80
[6] = dose: 100.0 mg/kg/injection, schedule: Q01DX009 (ip), vehicle: saline
[7] = dose: 200.0 mg/kg/injection, schedule: Q01DX009 (ip), vehicle: saline
[8] = dose: 50.0 mg/kg/injection, schedule: Q01DX009 (ip), vehicle: saline
[9] = dose: 100.0 mg/kg/injection, schedule: Q01DX009 (ip), vehicle: saline with Tween-80
[10] = dose: 12.5 mg/kg/injection, schedule: Q01DX009 (ip), vehicle: saline with Tween-80

Measured: T/C

CCO/C=N/n1c(C(=O)NCCCOC)nc2ccccc2c1=O
inactive: [1] 107 % of control | [2] 94 % of control | [3] 100 % of control

CC(=O)OCC1OC(n2cnc3c(=S)nc(N)[nH]c32)C(OC(C)=O)C1OC(C)=O (stereo not drawn)
inactive: dose: 12.5 mg/kg/injection, schedule: Q04DX003 (ip), vehicle: saline with Tween-80 118 % of control | [4] 122 % of control | [5] 113 % of control | dose: 300.0 mg/kg/injection, schedule: Q04DX003 (ip), vehicle: saline with Tween-80 100 % of control

O=C1CC2CC3C1C2n1c(=O)n(-c2ccccc2)c(=O)n13 (stereo not drawn)
inactive: dose: 100.0 mg/kg/injection, schedule: Q01DX001 (ip), vehicle: Klucel (hydroxypropylcellulose) (HPC) 107 % of control | dose: 200.0 mg/kg/injection, schedule: Q01DX001 (ip), vehicle: Klucel (hydroxypropylcellulose) (HPC) 101 % of control | dose: 400.0 mg/kg/injection, schedule: Q01DX001 (ip), vehicle: Klucel (hydroxypropylcellulose) (HPC) 96 % of control

CN(CC(=O)O)C(=O)CNC(=O)CN (H-Gly-Gly-[Sar]-OH)
inactive: dose: 50.0 mg/kg/injection, schedule: Q01DX005 (ip), vehicle: saline 91 % of control | dose: 100.0 mg/kg/injection, schedule: Q01DX005 (ip), vehicle: saline 92 % of control | dose: 200.0 mg/kg/injection, schedule: Q01DX005 (ip), vehicle: saline 91 % of control

CC(=O)Nc1ccc(/C=N/Nc2ccc([N+](=O)[O-])cn2)cc1
inactive: [6] 86 % of control | [7] 90 % of control | dose: 400.0 mg/kg/injection, schedule: Q01DX009 (ip), vehicle: saline 90 % of control

C=C(NC(=O)c1csc(-c2nc3c(cc2O)-c2nc(cs2)C(=O)NC(C(C)O)C(=O)N/C(=C\C)c2nc(cs2)C(=O)NC2CC(O)C(=O)OCc4cccc5[nH]c(c(C)c45)C(=O)SCC(NC(=O)c4csc2n4)c2nc-3cs2)n1)C(N)=O (stereo not drawn)
inactive: dose: 15.0 mg/kg/injection, schedule: Q01DX009 (ip), vehicle: Klucel (hydroxypropylcellulose) (HPC) 100 % of control | dose: 30.0 mg/kg/injection, schedule: Q01DX009 (ip), vehicle: Klucel (hydroxypropylcellulose) (HPC) 99 % of control | dose: 60.0 mg/kg/injection, schedule: Q01DX009 (ip), vehicle: Klucel (hydroxypropylcellulose) (HPC) 91 % of control | dose: 120.0 mg/kg/injection, schedule: Q01DX009 (ip), vehicle: Klucel (hydroxypropylcellulose) (HPC) 88 % of control

C/C(=N\O)c1ccc2ccccc2c1
inactive: [8] 101 % of control | [6] 113 % of control | [7] 102 % of control

CCCCCCCCCC(C)CC(=O)NCCCN(C)CCCCN(C)C (stereo not drawn)
inactive: dose: 0.78 mg/kg/injection, schedule: Q01DX009 (ip), vehicle: Klucel (hydroxypropylcellulose) (HPC) 107 % of control | dose: 1.56 mg/kg/injection, schedule: Q01DX009 (ip), vehicle: Klucel (hydroxypropylcellulose) (HPC) 105 % of control | dose: 3.13 mg/kg/injection, schedule: Q01DX009 (ip), vehicle: Klucel (hydroxypropylcellulose) (HPC) 112 % of control | dose: 6.25 mg/kg/injection, schedule: Q01DX009 (ip), vehicle: Klucel (hydroxypropylcellulose) (HPC) 87 % of control

CN1CCC2(CC1)N=C1CCN(C)CC1S2 (stereo not drawn)
inactive: dose: 100.0 mg/kg/injection, schedule: Q01DX001 (ip), vehicle: saline with Tween-80 102 % of control | dose: 200.0 mg/kg/injection, schedule: Q01DX001 (ip), vehicle: saline with Tween-80 109 % of control

CCOP(=S)(OCC)Oc1cc(C)nc(C(C)C)n1
inactive: [5] 112 % of control | [9] 111 % of control

COc1ccccc1C1OC(N)=C(O)C1=O (stereo not drawn)
inactive: dose: 60.0 mg/kg/injection, schedule: Q01DX005 (ip), vehicle: Klucel (hydroxypropylcellulose) (HPC) 97 % of control | dose: 120.0 mg/kg/injection, schedule: Q01DX005 (ip), vehicle: Klucel (hydroxypropylcellulose) (HPC) 103 % of control | dose: 240.0 mg/kg/injection, schedule: Q01DX005 (ip), vehicle: Klucel (hydroxypropylcellulose) (HPC) 104 % of control

COc1cc2ccc3c(c2cc1OC)C=[N+](C)CC3
inactive: dose: 44.0 mg/kg/injection, schedule: Q01DX009 (ip), vehicle: saline with Tween-80 100 % of control | dose: 66.0 mg/kg/injection, schedule: Q01DX009 (ip), vehicle: saline with Tween-80 109 % of control | [9] 109 % of control | dose: 150.0 mg/kg/injection, schedule: Q01DX009 (ip), vehicle: saline with Tween-80 113 % of control

COC(=O)Nc1ccc(Cc2ccc(NC(=O)OC)cc2)cc1
inactive: [4] 101 % of control and 104 % of control

[CH3][Sn]1([CH3])[O]c2ccccc2C=NCCN=Cc2ccccc2[O]1
inactive: dose: 12.5 mg/kg/injection, schedule: Q01DX009 (ip), vehicle: saline 100 % of control and 91 % of control | dose: 25.0 mg/kg/injection, schedule: Q01DX009 (ip), vehicle: saline 106 % of control and 86 % of control | [8] 91 % of control | [6] 107 % of control

O=P(O)(O)OC1C(OP(=O)(O)O)C(OP(=O)(O)O)C(OP(=O)(O)O)C(OP(=O)(O)O)C1OP(=O)(O)O (stereo not drawn)
inactive: [8] 94 % of control | [6] 94 % of control | [7] 102 % of control

COC(=O)C(C)CP(=O)(O)OC (stereo not drawn)
inactive: dose: 50.0 mg/kg/injection, schedule: Q01DX005 (ip), vehicle: water 97 % of control | dose: 100.0 mg/kg/injection, schedule: Q01DX005 (ip), vehicle: water 98 % of control | dose: 200.0 mg/kg/injection, schedule: Q01DX005 (ip), vehicle: water 114 % of control

CN(C)N1Cc2ccccc2NC1=O
inactive: [1] 102 % of control | [2] 96 % of control | [3] 110 % of control

NCC(=O)NC(CC(=O)O)C(=O)O (stereo not drawn) (H-Gly-[ξD]-OH)
inactive: dose: 100.0 mg/kg/injection, schedule: Q04DX003 (ip), vehicle: saline with Tween-80 100 % of control | dose: 200.0 mg/kg/injection, schedule: Q04DX003 (ip), vehicle: saline with Tween-80 93 % of control | dose: 400.0 mg/kg/injection, schedule: Q04DX003 (ip), vehicle: saline with Tween-80 94 % of control

C=C(CCC(C(=O)O)C1C(O)CC2(C)C3=C(CCC12C)C1(C)CCC(OC(C)=O)C(C)(C)C1CC3)C(C)C (stereo not drawn)
inactive: [10] 100 % of control | [4] 96 % of control | [5] 98 % of control

O=C1C(=Cc2ccc(O)cc2)C(=O)c2ccccc21
inactive: dose: 100.0 mg/kg/injection, schedule: Q04DX002 (ip), vehicle: saline 97 % of control | dose: 200.0 mg/kg/injection, schedule: Q04DX002 (ip), vehicle: saline 99 % of control | dose: 400.0 mg/kg/injection, schedule: Q04DX002 (ip), vehicle: saline 106 % of control

CCCCCCCCCCCCCC(CCCC)CCCCCCCC (stereo not drawn)
inactive: dose: 37.5 mg/kg/injection, schedule: Q01DX001 (ip), vehicle: saline sonified 104 % of control | dose: 75.0 mg/kg/injection, schedule: Q01DX001 (ip), vehicle: saline sonified 100 % of control | dose: 150.0 mg/kg/injection, schedule: Q01DX001 (ip), vehicle: saline sonified 100 % of control

O=C(O)c1nn(-c2ccc(Cl)cc2)c2c1C(=O)c1ccccc1C2=O
inactive: dose: 12.5 mg/kg/injection, schedule: Q01DX005 (ip), vehicle: Klucel (hydroxypropylcellulose) (HPC) 98 % of control | dose: 25.0 mg/kg/injection, schedule: Q01DX005 (ip), vehicle: Klucel (hydroxypropylcellulose) (HPC) 91 % of control | [1] 98 % of control and 89 % of control | [2] 92 % of control | [3] 103 % of control

COc1ccc(CN2CCCN(Cc3ccc(OC)cc3)P2(=O)Nc2ccc(OC)cc2)cc1
inactive: dose: 50.0 mg/kg/injection, schedule: Q01DX005 (ip), vehicle: saline with Tween-80 97 % of control | dose: 100.0 mg/kg/injection, schedule: Q01DX005 (ip), vehicle: saline with Tween-80 100 % of control | dose: 200.0 mg/kg/injection, schedule: Q01DX005 (ip), vehicle: saline with Tween-80 100 % of control

Nc1nc(Cl)c(C=O)c(Cl)n1
inactive: [10] 96 % of control | [4] 100 % of control and 119 % of control | [5] 100 % of control and 120 % of control | [9] 115 % of control

COc1cc2c(c(OC)c1OC)-c1cc3c(cc1C(OC1OC4COC(C)OC4C(O)C1O)C1COC(=O)C1C2)OCO3 (stereo not drawn)
inactive: dose: 17.5 mg/kg/injection, schedule: Q01DX005 (ip), vehicle: Klucel (hydroxypropylcellulose) (HPC) 103 % of control | dose: 35.0 mg/kg/injection, schedule: Q01DX005 (ip), vehicle: Klucel (hydroxypropylcellulose) (HPC) 101 % of control | dose: 70.0 mg/kg/injection, schedule: Q01DX005 (ip), vehicle: Klucel (hydroxypropylcellulose) (HPC) 119 % of control | dose: 140.0 mg/kg/injection, schedule: Q01DX005 (ip), vehicle: Klucel (hydroxypropylcellulose) (HPC) 119 % of control

Cc1cc2nnn(-c3ncccc3[N+](=O)[O-])c2cc1C
inactive: dose: 60.0 mg/kg/injection, schedule: Q01DX005 (ip), vehicle: saline with Tween-80 104 % of control | dose: 120.0 mg/kg/injection, schedule: Q01DX005 (ip), vehicle: saline with Tween-80 101 % of control | dose: 240.0 mg/kg/injection, schedule: Q01DX005 (ip), vehicle: saline with Tween-80 101 % of control
